{"source": "patent US20060003016A1", "about": "“Therapeutic method for endolymphatic hydrops associated diseases” (priority 2004, published 2006)", "key": {"[1]": {"system": "patients with Meniere's disease and endolymphatic hydrops associated diseases", "assay": "Clinical course of vertigo, aural fullness, tinnitus and hearing in clinical cases", "format": "in vivo, patient", "excerpt": "Therapeutic method of our invention is always performed after general examinations and standard laboratory examinations, such as blood pressure, plasma electrolytes, and urine osmolality. After consideration of body weight, age, sex, and life style, we directed the patients to take adequate water (see below) every day in combination with short-term application with isosorbite®. During the initial stage of the water intake method, recommended volume of water intake for adult male, weighing 60 kg, is calculated as 1.8-2.1 l per day according to the following formula (F 1). […] They seem to be nervous and live under the very strong psychological pressure.\nThe present invention is explained in detail by mentioning clinical cases."}, "[2]": {"system": "patients with Meniere's disease", "excerpt": "In the present case who could be followed up for more than 24 months after treatment with water intake, the therapeutic effect was judged by using the criteria of AAO-HNS (1995)^14), 15). Proviso that in an examination on changes of the hearing, although the criteria in the four-frequency pure-tone averages (PTA) of AAO-HNS (1995)^14) adopted mean values of the hearing levels consisting of 500 Hz, 1000 Hz, 2000 Hz and 3000 Hz, in our case, the value of 4000 Hz was used in stead of that of 3000 Hz.\nTherapeutic effect for vertigo^14), 15) was calculated according to the following equation. [formula]\nNamely, in the present case, vertiginous attack in 6 months during 18 months-24 months after the treatment was 0 time, and average numbers of rotatory vertigo per month for 6 months before the treatment were 2 times (i.e. onset in Mar. 5, 2000 and Jul. 22, 2000 within 6 months before Aug. 5, 2000). Consequently, applying the above equation: [formula] […] Clinical Case 4 Low Frequency Sensorineural Hearing Loss of the Right Ear"}, "[3]": {"settings": "case 1, water intake 2 lit./day continued, up to March 2004"}}, "note": "Where two headings read alike, the source gives them in different places."}
{"smiles": "O", "note": "[water intake, water]", "values": [{"measurement": "right hearing", "setting": "[1]; [3]", "result": "within normal range"}, {"measurement": "rotatory vertigo", "setting": "[1]; [3]", "result": "no rotatory vertigo was noted"}, {"measurement": "rotatory vertigo", "setting": "[1]; case 2, water intake 1.5 lit./day from Feb. 21, 2003 in addition to isosorbide 21 g/dose and difenidol hydrochloride 25 mg/dose on demand", "result": "remitted after May 3, 2003"}, {"measurement": "resound or aural fullness (in the right ear)", "setting": "[1]; case 2, water intake 1.5 lit./day in addition to isosorbide and difenidol hydrochloride on demand", "result": "remitted after Aug. 18, 2003"}, {"measurement": "hearing level", "setting": "[1]; case 2, water intake 1.5 lit./day in addition to isosorbide and difenidol hydrochloride on demand, to February 2004", "result": "maintained within normal range"}, {"measurement": "hearing", "setting": "[1]; case 3, water intake, up to January 2004", "result": "maintained within normal range"}, {"measurement": "rotatory vertigo", "setting": "[1]; case 3, water intake, up to January 2004, except one attack Mar. 16, 2001", "result": "no rotatory vertigo was recognized"}, {"measurement": "hearing of the right low tone", "setting": "[1]; case 4, water intake 1.5 lit./day, October 2003 to January 2004", "result": "maintained improved state"}, {"measurement": "rotatory vertigo", "setting": "[1]; case 5, water intake 1.5 lit./day", "result": "could not be recognized after Oct. 24, 2002"}, {"measurement": "high frequency sensorineural hearing loss of the left ear", "setting": "[1]; case 5, water intake 1.5 lit./day plus isosorbide 63 g t.d.s. and adenosine triphosphate 300 mg t.d.s for 2 weeks", "result": "improved in Oct. 24, 2002"}, {"measurement": "low frequency sensorineural hearing loss of the left ear", "setting": "[1]; case 5, water intake 1.5 lit./day plus isosorbide and adenosine triphosphate for 2 weeks", "result": "improved from Nov. 29, 2002"}, {"measurement": "left hearing compared with right hearing", "setting": "[1]; case 5, water intake 1.5 lit./day, from Jul. 18, 2003", "result": "became equal level to the right hearing"}, {"measurement": "left ear tinnitus", "setting": "[1]; case 5, water intake 1.5 lit./day, to January 2004", "result": "gradually remitted"}, {"measurement": "rotatory vertiginous attack accompanied by tinnitus", "setting": "[1]; case 6, water intake with isosorbide and difenidol hydrochloride on demand, after Dec. 21, 2001 until February 2004", "result": "no rotary vertiginous attack"}, {"measurement": "low frequency sensorineural hearing loss of the left ear", "setting": "[1]; case 7, water intake 300 ml before going to sleep in addition to steroid, VB12 and PGE1", "result": "improved"}, {"measurement": "left hearing", "setting": "[1]; case 7, water intake continued (1.5 lit./day after September 2002), until now", "result": "maintained the improved state"}, {"measurement": "right hearing level lower as compared with the left hearing level in all frequency range", "setting": "[1]; case 8, water intake, at present, 2 -25 dB at initial examination", "result": "5 -15 dB"}, {"measurement": "rotatory vertigo", "setting": "[1]; case 8, water intake, during the progress after the initial examination", "result": "No rotatory vertigo could be recognized"}, {"measurement": "outcome of most of patients with Meniere's disease", "setting": "[1]; water intake method in combination with short-term isosorbide", "result": "improved without re-attack for 1-2 years"}, {"measurement": "category of therapeutic effect for vertigo, AAO-HNS criteria", "setting": "[2]; case 3, water intake", "result": "complete control"}, {"measurement": "vertiginous attack in 6 months during 18 months-24 months after the treatment", "setting": "[2]; case 3, water intake, 2 times in 6 months before", "result": 0, "unit": "time"}, {"measurement": "category of therapeutic effect for vertigo, AAO-HNS criteria", "setting": "[2]; case 6, water intake", "result": "complete control"}, {"measurement": "vertiginous attack in 6 months during 18 months-24 months after the treatment", "setting": "[2]; case 6, water intake, 4 times estimated in 6 months before", "result": 0, "unit": "time"}, {"measurement": "category of therapeutic effect for vertigo, AAO-HNS criteria", "setting": "[2]; case 7, water intake", "result": "complete control"}, {"measurement": "vertiginous attack in 6 months during 18 months-24 months after the treatment", "setting": "[2]; case 7, water intake, 0 time in 6 months before", "result": 0, "unit": "time"}, {"measurement": "category of therapeutic effect for vertigo, AAO-HNS criteria", "setting": "[2]; case 8, water intake", "result": "complete control"}, {"measurement": "vertiginous attack in 6 months during 18 months-24 months after the treatment", "setting": "[2]; case 8, water intake, 1 in 6 months before", "result": 0, "unit": "time"}]}
